Measurements published in US20260345459A1, “SUBMICRON PARTICLE COMPRISING A PEPTIDE ACTIVE, PREPARATION METHOD AND USES THEREOF, IN PARTICULAR COSMETIC USES” (Sederma, priority 2023, published 2026).
Each block holds one molecule with its values, some of them ahead of it. Residues, ends and D or L forms follow the SMILES beside them. No end group written: not given here. *: point of attachment. Palmitoyl = CCCCCCCCCCCCCCCC(=O)*; Lauroyl = CCCCCCCCCCCC(=O)*

What was measured:
[1] = Accelerated stability at 40 °C; assay type: physicochemical
Method: (§1) For these studies, encapsulated peptide formulations were stored in HDPE polyethylene bottles at the study temperature (room temperature and 40 °C). At each analysis time, a new 30 g bottle is opened for the first time. All the samples are handled under regular laboratory lighting and normal air conditions. No inert gas is used to fill the bottles or to handle the samples.
The study was performed at 40 °C. At this temperature, degradation is accelerated. There is a correlation with degradation at room temperature, 90 days at 40 °C being equivalent to 1 year at room temperature. This study thus constitutes a good indicator of the stability of the encapsulated peptide suspensions according to the invention.

[2] = Trypsin digestion: proof of encapsulation and half-life; assay type: in vitro ADME; settings: role: substrate; 0.003% trypsin, acetate buffer pH=5, 25 °C, peptide 100 ppm; read-out: T1/2 (loss of 50% of the initial content)
Method: The study was performed on a suspension of Pal-KTTKS encapsulated according to the invention, using trypsin, an enzyme that hydrolyses a peptide whose sequence contains the amino acid lysine. The peptide is placed in the presence of trypsin and the amount of peptide remaining, i.e. not hydrolysed by trypsin, is measured as a function of time. Only the peptide released from the capsule over time is susceptible to hydrolysis.
At T0, measurements make it possible to confirm that the peptide is encapsulated.
The kinetics will then make it possible to determine the half-life, which constitutes an indicator of the peptide's accessibility to the enzyme, and therefore an indicator of the peptide's protection by the capsule.
Two solutions are compared: one containing the encapsulated peptide (100 ppm) and the other the free (i.e. non-encapsulated) peptide, also at 100 ppm. Acetate buffer solution at pH=5 containing 0.003% trypsin is added. The samples are heated to 25 °C. The enzymatic reaction is stopped to perform the measurements by adding isopropyl alcohol. Peptide quantification is performed by HPLC using the method described in paragraph B 1-4 above.
Hydrolysis monitoring is performed under the chromatographic analysis conditions described in paragraph B 1-4 above.

[3] = Stability at room temperature; assay type: physicochemical
Method: as §1
The following encapsulated peptides were monitored: Pal-KTTKS, Pal-GHK, Pal-GQPR, Pal-KTFK, Pal-KMO2K, Pal-VGVAPG and Pal-PP.

[4] = Characterization of the obtained suspensions at T0 (macroscopic, pH, laser diffraction particle size, polydispersity, HPLC peptide content); assay type: physicochemical; settings: different derivatization, peptide 100 ppm
Method: For each suspension, the presence or absence of heterogeneous aspects, phase separation or precipitation, and colour are visually assessed through a colourless transparent bottle without the use of any instruments. The viscosity is also estimated visually in comparison with water.
The pH was measured directly in the formulation (without dilution) using a calibrated potentiometer (pH 4.0 and 7.0).
Laser diffraction technique (Mastersizer 3000™, Malvern). The suspension is added directly to the water-containing wet dispersion unit until darkening in the 2-8% range. The refractive index used is 1.456, corresponding to the index of wax, i.e. cetyl palmitate. The results are expressed in D50 corresponding to particle diameters at the 50th percentile of the particle size distribution curve, representing the mean particle size.
A range of less than 2 is considered as a narrow distribution, describing particle size homogeneity.
This is quantified using an HPLC chromatography method, with a column, mobile phase and detection appropriate to each peptide active agent. An external calibration curve is produced.
Each suspension is treated by liquid/liquid extraction of a mixture composed of isopropanol, a pH 2-2.5 buffer and an organic solvent (acetonitrile or methanol) depending on the peptide to be dosed.
For Pal-KTTKS, Pal-GHK, Pal-GQPR and Pal-VGVAPG peptides, quantification is performed, for example, by HPLC at 35 °C using a Waters Symmetry™ C18 5 μm 4.6×150 mm HPLC column, a mobile phase consisting of an eluent of 99.8/0.1/0.1 v/v/v water/orthosphoric acid/triethylamine and acetonitrile. Detection is performed at 210 nm.
For the Pal-PP peptide, for example, analysis is performed at 40 °C using a Macherey Nagel™ EC 125/4 Nucleodur 100-5 C8 ec column, a mobile phase consisting of a 99.8/0.1/0.1 v/v/v water/orthosphoric acid/triethylamine and acetonitrile eluent. Detection is performed at 210 nm. […]

[5] = different derivatization, peptide 100 ppm, 1 month at 40 °C
[6] = TA1 decyl glucoside, RT, 3 months

Molecule: CCCCCCCC(=O)N[C@H](C(=O)N[C@@H](Cc1c[nH]c2ccccc12)C(=O)O)[C@@H](C)CC [Octanoyl-IW]
Stability over time [1, 5]: Yes

Molecule: KTTKS [H-KTTKS]
Stability over time [1, 5]: Yes

Molecule: CCCCCCCCCCCC(=O)N[C@@H](CCCCN)C(=O)N[C@H](C(=O)N[C@@H](CO)C(=O)N[C@@H](CCCCN)C(=O)N[C@@H](CO)C(=O)O)[C@@H](C)O [Lauroyl-KTSKS] (Lauroyl-KTSKS-OH)
Stability over time [1, 5]: Yes

Molecule: CCCCCCCCCCCCCCCCOC(=O)[C@H](CCCNC(=N)N)NC(=O)[C@H](Cc1ccc(O)cc1)NC(C)=O [N-Acetyl-YR-O-hexadecyl ester, Acetyl-Tyr-Arg-hexadecyl ester]
D50 [4]: D50 (μm) = 0.234
Formation of a suspension of submicron particles [4]: Yes
pH [4]: pH 8.70
D50 [1, 5]: D50 (μm) = 0.237
Stability over time [1, 5]: Yes
pH [1, 5]: pH 8.70

Next, values leading:

half-life [2]: 1 h
Stability over time ([3]; 2.5% wax, RT, 6 months): Yes
Stability over time ([3]; 5% wax, RT, 6 months): Yes
Stability over time [3, 6]: Yes (3 months)
Stability over time ([3]; TA1 lauryl glucoside, RT, 12 months): Yes (12 months)
stability duration ([3]; room temperature, encapsulated): up to 1 year
Stability over time [1, 5]: Yes
Molecule: CCCCCCCCCCCCCCCC(=O)N[C@@H](CCCCN)C(=O)N[C@H](C(=O)N[C@H](C(=O)N[C@@H](CCCCN)C(=O)N[C@@H](CO)C(=O)O)[C@@H](C)O)[C@@H](C)O [Pal-KTTKS] (Palmitoyl-KTTKS-OH)

Stability over time ([3]; 10% glycerol, 1 month): Yes
Stability over time ([3]; TA1 + TA2 (Lipoid P75-3), 3 months at RT): Yes
Stability over time [3, 6]: Yes (3 months)
Stability over time ([3]; TA1 lauryl glucoside, RT, 3 months): Yes (3 months)
Stability over time ([3]; TA1 only, without TA2, 3 months at RT): Yes
Stability over time ([3]; peptide content 100 ppm, RT, 1 month): Yes
Stability over time ([3]; peptide content 500 ppm, RT, 1 month): Yes
Stability over time ([3]; peptide content 1000 ppm, RT, 1 month): Yes
Stability over time ([3]; without glycerol, 1 month): Yes
Stability over time ([1]; TA1 + TA2 (Lipoid P75-3), 3 months at 40 °C): Yes
Stability over time ([1]; TA1 only, without TA2, 3 months at 40 °C): No: Phase
Molecule: CCCCCCCCCCCCCCCC(=O)NCC(=O)N[C@@H](Cc1c[nH]cn1)C(=O)N[C@@H](CCCCN)C(=O)O [Pal-GHK] (Palmitoyl-Gly-His-Lys-OH)
